Test results as given in patent US12617779B2, “Self degradation-type CDK9 inhibitor prodrug and liposome encapsulating same” (Sumitomo Pharma Co., Ltd., priority 2021, dated 2026).

Experiment: Evaluation of conversion rate to active form in buffer solution (Experimental Example 1)
Assay type: physicochemical
Summary of the method: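 Conversion to Alvocidib was followed by HPLC over 3 hours at 37° C, with test compounds at 25 umol/L in 50 mM citrate or phosphate buffers spanning pH 5.0–7.4.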

## C[C@H](N)C(=O)O[C@@H]1CN(C)CC[C@@H]1c1c(O)cc(O)c2c(=O)cc(-c3ccccc3Cl)oc12 [Comparative Example 7, reference compound]
pH5.0, 0 hr
  Production rate of Alvocidib: 2.8%
  Residual rate: 96.8%
pH 5, 37° C., up to 2 or 3 hours
  Stability in buffer solution at pH 5: unstable
pH5.0, 0.5 hr
  Production rate of Alvocidib: 5.7%
  Residual rate: 93.9%
pH5.0, 1 hr
  Production rate of Alvocidib: 9.7%
  Residual rate: 90.1%
pH5.0, 2 hr
  Production rate of Alvocidib: 15.7%
  Residual rate: 83.8%
pH5.0, 3 hr
  Production rate of Alvocidib: 21.9%
  Residual rate: 77.6%
pH5.5, 0 hr
  Production rate of Alvocidib: 2.7%
  Residual rate: 97.0%
pH5.5, 0.5 hr
  Production rate of Alvocidib: 7.9%
  Residual rate: 91.9%
pH5.5, 1 hr
  Production rate of Alvocidib: 14.3%
  Residual rate: 85.4%
pH5.5, 2 hr
  Production rate of Alvocidib: 23.8%
  Residual rate: 75.9%
pH5.5, 3 hr
  Production rate of Alvocidib: 33.1%
  Residual rate: 66.6%
pH6.0, 0 hr
  Production rate of Alvocidib: 3.4%
  Residual rate: 96.4%
pH6.0, 0.5 hr
  Production rate of Alvocidib: 26.1%
  Residual rate: 73.9%
pH6.0, 1 hr
  Production rate of Alvocidib: 48.3%
  Residual rate: 51.7%
pH6.0, 2 hr
  Production rate of Alvocidib: 70.9%
  Residual rate: 28.9%
pH6.0, 3 hr
  Production rate of Alvocidib: 84.8%
  Residual rate: 15.2%
pH6.5, 0 hr
  Production rate of Alvocidib: 3.9%
  Residual rate: 96.0%
pH6.5, 0.5 hr
  Production rate of Alvocidib: 34.7%
  Residual rate: 65.3%
pH6.5, 1 hr
  Production rate of Alvocidib: 61.2%
  Residual rate: 38.8%
pH6.5, 2 hr
  Production rate of Alvocidib: 83.2%
  Residual rate: 16.8%
pH6.5, 3 hr
  Production rate of Alvocidib: 93.4%
  Residual rate: 6.6%
pH7.0, 0 hr
  Production rate of Alvocidib: 4.1%
  Residual rate: 95.9%
pH7.0, 0.5 hr
  Production rate of Alvocidib: 37.3%
  Residual rate: 62.6%
pH7.0, 1 hr
  Production rate of Alvocidib: 64.3%
  Residual rate: 35.5%
pH7.0, 2 hr
  Production rate of Alvocidib: 85.8%
  Residual rate: 14.2%
pH7.0, 3 hr
  Production rate of Alvocidib: 94.9%
  Residual rate: 5.1%
pH7.4, 0 hr
  Production rate of Alvocidib: 4.2%
  Residual rate: 95.3%
pH7.4, 0.5 hr
  Production rate of Alvocidib: 36.7%
  Residual rate: 63.0%
pH7.4, 1 hr
  Production rate of Alvocidib: 63.5%
  Residual rate: 36.3%
pH7.4, 2 hr
  Production rate of Alvocidib: 84.7%
  Residual rate: 15.3%
pH7.4, 3 hr
  Production rate of Alvocidib: 94.4%
  Residual rate: 5.6%
